Assay [1] has as its target Ribosomal protein S6 kinase alpha-1 (Homo sapiens) (UniProt Q15418). Kind of assay: Inhibition of Rsk1 phosphorylation in PMA-stimulated human U937 cells at 10 to 50 uM after 3 hrs by Western blotting. The class given is cell-based. As to conditions: U-937. On the technique in general: Immunoblotting shows a protein as a band on a membrane.
Assay [2] deals with T1, Mitogen-activated protein kinase; ERK1/ERK2 (Homo sapiens) (UniProt P27361+P28482). The assay can be described thus: Inhibition of ERK1/2 phosphorylation in PMA-stimulated human U937 cells at 50 uM after 3 hrs by Western blotting. As to conditions: U-937. The class given is cell-based.
T1 sequence (P27361 whole entry, looked up): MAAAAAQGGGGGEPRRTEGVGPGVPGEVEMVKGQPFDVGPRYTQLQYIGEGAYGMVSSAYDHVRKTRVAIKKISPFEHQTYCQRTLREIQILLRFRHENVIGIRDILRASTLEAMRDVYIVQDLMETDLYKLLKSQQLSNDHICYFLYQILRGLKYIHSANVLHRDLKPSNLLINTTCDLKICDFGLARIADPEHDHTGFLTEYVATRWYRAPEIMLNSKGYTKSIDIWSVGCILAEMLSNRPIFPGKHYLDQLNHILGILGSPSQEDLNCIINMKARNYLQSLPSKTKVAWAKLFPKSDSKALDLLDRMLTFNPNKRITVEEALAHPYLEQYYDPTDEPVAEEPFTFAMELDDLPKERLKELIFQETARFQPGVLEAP
T1 sequence (P28482 whole entry, looked up): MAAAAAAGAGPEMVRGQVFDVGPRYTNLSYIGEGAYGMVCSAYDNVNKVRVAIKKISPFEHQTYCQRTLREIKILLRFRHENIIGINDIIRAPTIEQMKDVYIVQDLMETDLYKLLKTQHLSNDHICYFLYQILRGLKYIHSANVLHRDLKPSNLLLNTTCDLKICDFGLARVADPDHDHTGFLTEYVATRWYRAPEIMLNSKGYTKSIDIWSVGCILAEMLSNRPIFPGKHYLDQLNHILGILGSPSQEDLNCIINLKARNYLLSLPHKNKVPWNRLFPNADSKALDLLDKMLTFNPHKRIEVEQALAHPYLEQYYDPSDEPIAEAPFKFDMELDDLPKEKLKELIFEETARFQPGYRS
Assay [3] has as its target Ribosomal protein S6 kinase alpha-1 (Homo sapiens) (UniProt Q15418). Kind of assay: Inhibition of Rsk1 phosphorylation in PMA-stimulated human U937 cells at 50 uM after 3 hrs by Western blotting. The class given is cell-based. To be noted: U-937.
Assay [4] concerns the target Dual specificity mitogen-activated protein kinase kinase; MEK1/2 (Homo sapiens) (UniProt P36507+Q02750). The assay can be described thus: Inhibition of MEK1/2 phosphorylation in PMA-stimulated human U937 cells at 50 uM after 3 hrs by Western blotting. The assay is classed as cell-based. As to conditions: U-937.
For assay [5], the target named is T2, ETS domain-containing protein Elk-1 (Homo sapiens) (UniProt P19419).
T2 sequence (whole entry): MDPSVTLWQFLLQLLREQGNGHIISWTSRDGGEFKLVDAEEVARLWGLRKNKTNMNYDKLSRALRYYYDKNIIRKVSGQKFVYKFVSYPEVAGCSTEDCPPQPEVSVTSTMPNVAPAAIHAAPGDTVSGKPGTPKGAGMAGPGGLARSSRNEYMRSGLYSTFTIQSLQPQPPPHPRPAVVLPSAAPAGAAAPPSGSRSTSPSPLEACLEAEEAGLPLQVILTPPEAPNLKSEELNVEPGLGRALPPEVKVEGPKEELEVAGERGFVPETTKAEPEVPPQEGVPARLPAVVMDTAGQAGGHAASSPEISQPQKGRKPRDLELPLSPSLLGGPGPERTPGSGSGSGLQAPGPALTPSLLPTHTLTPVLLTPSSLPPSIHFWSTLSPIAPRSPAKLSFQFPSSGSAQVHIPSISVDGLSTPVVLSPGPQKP
Kind of assay: Inhibition of Elk1 phosphorylation in PMA-stimulated human U937 cells at 50 uM after 3 hrs by Western blotting. The class given is cell-based. As to conditions: U-937.

Assay [6] has as its target MAP kinase p38 (Homo sapiens) (UniProt O15264+Q15759+Q16539+P53778). The assay can be described thus: Inhibition of p38 phosphorylation in PMA-stimulated human U937 cells at 50 uM after 3 hrs by Western blotting. To be noted: U-937. The class given is cell-based.
Assay [7] has as its system U-937. The assay can be described thus: Induction of apoptosis in human U937 assessed as loss of mitochondrial membrane potential after 18 hrs by DiOC6 uptake assay. The assay is classed as functional, cell-based.
Assay [8] concerns the target T1, Mitogen-activated protein kinase; ERK1/ERK2 (Homo sapiens). Kind of assay: Inhibition of ERK1/2 phosphorylation in PMA-stimulated human U937 cells at 10 to 50 uM after 3 hrs by Western blotting. The class given is cell-based. As to conditions: U-937.
A short description of assay [9]: Inhibition of MEK phosphorylation.
The nature of assay [10]: Inhibition of JNK phosphorylation.
Assay [11] deals with T1, Mitogen-activated protein kinase; ERK1/ERK2 (Homo sapiens). Kind of assay: Inhibition of ERK1/2 phosphorylation in EGF-stimulated human SKOV3 cells. The assay is classed as cell-based. As to conditions: SK-OV-3.
The target in assay [12] is Mitogen-activated protein kinase 1 (Homo sapiens) (UniProt P28482). The assay can be described thus: Inhibition of recombinant ERK2-mediated myelin basic protein phosphorylation at 50 uM after 30 mins by SDS-PAGE.
Mitogen-activated protein kinase 1 (Homo sapiens), sequence (P28482 whole entry): as the sequence (P28482 whole entry, looked up) above
Assay [13] has as its system U-937. Kind of assay: Cytotoxicity against human U937 cells assessed as cell viability up to 30 uM after 24 hrs by MTT assay. The assay is classed as functional, cell-based. In general terms: Formazan colour is commonly taken as a measure of viable cells.
The test system of assay [14] is U-937. Kind of assay: Antiproliferative activity human U937 cells by [3H]thymidine incorporation assay. The assay is classed as functional, cell-based. (Incorporation of labelled thymidine or its analogues reports DNA synthesis.)

Molecules are shown by their SMILES. Activity calls are given as the source filed them. No cut-off for these calls is given here.

Ribosomal protein S6 kinase alpha-1 (Homo sapiens), sequence (Q15418 whole entry): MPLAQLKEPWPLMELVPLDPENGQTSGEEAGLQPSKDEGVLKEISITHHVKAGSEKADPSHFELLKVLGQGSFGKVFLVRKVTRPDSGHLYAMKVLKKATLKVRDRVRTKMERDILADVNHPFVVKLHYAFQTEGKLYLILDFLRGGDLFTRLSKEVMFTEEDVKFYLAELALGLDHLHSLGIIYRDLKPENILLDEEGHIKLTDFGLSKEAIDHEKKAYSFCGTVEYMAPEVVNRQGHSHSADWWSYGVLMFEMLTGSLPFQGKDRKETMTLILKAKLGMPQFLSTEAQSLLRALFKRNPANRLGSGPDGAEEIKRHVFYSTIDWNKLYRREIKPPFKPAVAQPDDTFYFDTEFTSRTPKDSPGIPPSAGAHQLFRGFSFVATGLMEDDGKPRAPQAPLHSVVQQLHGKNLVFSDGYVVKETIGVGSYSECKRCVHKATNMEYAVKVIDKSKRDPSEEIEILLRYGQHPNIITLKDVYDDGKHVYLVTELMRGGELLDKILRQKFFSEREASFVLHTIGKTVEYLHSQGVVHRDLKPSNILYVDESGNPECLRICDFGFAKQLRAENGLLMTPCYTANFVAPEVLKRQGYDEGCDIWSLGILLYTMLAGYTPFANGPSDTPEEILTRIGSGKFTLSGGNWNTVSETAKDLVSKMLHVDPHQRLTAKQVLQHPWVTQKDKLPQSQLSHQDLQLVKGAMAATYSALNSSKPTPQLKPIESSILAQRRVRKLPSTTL
Dual specificity mitogen-activated protein kinase kinase; MEK1/2 (Homo sapiens), sequence (P36507 whole entry, looked up, the tested form may be a part): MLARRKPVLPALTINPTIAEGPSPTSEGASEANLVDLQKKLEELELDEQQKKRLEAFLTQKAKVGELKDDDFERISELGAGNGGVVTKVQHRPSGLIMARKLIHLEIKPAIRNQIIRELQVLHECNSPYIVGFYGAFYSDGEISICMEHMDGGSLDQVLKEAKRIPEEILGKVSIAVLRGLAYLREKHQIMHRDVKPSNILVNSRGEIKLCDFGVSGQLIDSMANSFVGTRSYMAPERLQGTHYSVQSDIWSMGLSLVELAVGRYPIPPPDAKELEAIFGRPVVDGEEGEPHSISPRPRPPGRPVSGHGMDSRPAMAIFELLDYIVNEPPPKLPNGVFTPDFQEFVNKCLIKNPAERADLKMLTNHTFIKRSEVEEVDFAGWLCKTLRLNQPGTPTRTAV
Dual specificity mitogen-activated protein kinase kinase; MEK1/2 (Homo sapiens), sequence (Q02750 whole entry, looked up, the tested form may be a part): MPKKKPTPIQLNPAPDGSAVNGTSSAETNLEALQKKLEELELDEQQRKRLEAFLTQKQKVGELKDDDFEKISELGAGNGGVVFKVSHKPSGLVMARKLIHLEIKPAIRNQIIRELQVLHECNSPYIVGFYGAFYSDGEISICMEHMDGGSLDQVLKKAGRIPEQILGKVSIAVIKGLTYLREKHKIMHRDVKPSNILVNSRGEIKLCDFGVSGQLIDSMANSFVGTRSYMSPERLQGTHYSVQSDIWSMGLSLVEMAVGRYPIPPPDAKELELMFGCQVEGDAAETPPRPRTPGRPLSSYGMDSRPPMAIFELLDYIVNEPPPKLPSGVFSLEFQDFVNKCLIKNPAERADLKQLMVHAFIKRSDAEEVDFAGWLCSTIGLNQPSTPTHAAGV

`NCCN1C(=O)S/C(=C\c2ccc(F)cc2)C1=O`: the inhibition entry in assay [1] is “inactive”.

`NCCN1C(=O)S/C(=C\c2cccc([N+](=O)[O-])c2)C1=O`: in assay [1], the inhibition entry was “inactive”.

Consider `NCCN1C(=O)S/C(=C\c2ccc3c(c2)OCCO3)C1=O`, for which the inhibition result in [2], in assay [3], in [4], in [5] and in assay [6] was “Active” each time. For the same compound, the result in assay [7] was inactive.

Regarding `NCCN1C(=O)S/C(=C\c2ccc(-c3ccc(Cl)cc3)cc2)C1=O`, the inhibition entry in assay [8] is “inactive”. For the same compound, the inhibition result in assay [1] is “Active”.

Consider `CCOc1ccc(/C=C2\SC(=O)N(CCNC(C)=O)C2=O)cc1`, for which, in assay [1], the inhibition result is “inactive”.

Turning to `Cc1ccc(/C=C2\SC(=O)N(CCN)C2=O)cc1`, the inhibition entry in assay [8] and in assay [1] was “inactive” each time.

As to `CN(C)CCN1C(=O)S/C(=C\C/C=C/c2ccccc2)C1=O`, the inhibition result in [2], in assay [3] and in [5] was “Active” each time. For the same compound, in assay [6], the inhibition result was “inactive”.

`CCOc1ccc(/C=C2\SC(=O)N(CCN)C2=O)cc1`: the inhibition result in assay [2], in assay [6], in assay [9], in assay [10], in assay [11] and in assay [12] was “inactive” throughout. Also, in [3], the inhibition entry was “Active”. Besides, in assay [13], the outcome was inactive.

In the case of `NCCN1C(=O)S/C(=C\c2cccc(F)c2)C1=O`, the inhibition entry in [1] was “inactive”.

Take `NCCN1C(=O)S/C(=C\c2ccccc2)C1=O`: the inhibition result in [8] and in assay [1] was “inactive” throughout.

In the case of `CCOc1ccccc1/C=C1\SC(=O)N(CCN)C1=O`, the inhibition entry in [8], in [6], in [9], in [10], in assay [11] and in assay [12] was “inactive” in each case. Also, the inhibition entry in assay [1] and in assay [5] was “Active” in each case. Moreover, the outcome in assay [13] was inactive. The Activity entry in assay [14] and in [7] was “Dose-dependent effect” in each case.

With `COc1ccc(/C=C2\SC(=O)N(CCN)C2=O)cc1`, the inhibition result in assay [8] and in [1] was “inactive” each time.

For the compound `CCOc1cccc(/C=C2\SC(=O)N(CCN)C2=O)c1`, the inhibition entry in assay [8] and in assay [1] was “inactive” each time.

In the case of `CCOc1ccc(/C=C2\SC(=O)N(CCN(C)C)C2=O)cc1`, in assay [1], the inhibition entry is “inactive”.

Turning to `NCCN1C(=O)S/C(=C\c2ccc([N+](=O)[O-])cc2)C1=O`, the inhibition result in assay [1] was “inactive”.

With `NCCN1C(=O)S/C(=C\c2cccc3ccccc23)C1=O`, the inhibition entry in [2], in assay [3], in assay [4], in assay [5] and in [6] was “Active” throughout. Further, the result in assay [7] was inactive.

In the case of `NCCN1C(=O)S/C(=C\[C@H](O)[C@@H](O)c2ccccc2)C1=O`, in assay [2], the inhibition result is “inactive”.

The values are drawn from ChEMBL document CHEMBL1156078, “Structure-activity relationship (SAR) studies of 3-(2-amino-ethyl)-5-(4-ethoxy-benzylidene)-thiazolidine-2,4-dione: development of potential substrate-specific ERK1/2 inhibitors” (Bioorg Med Chem Lett, 2009).
